How the values were obtained:
[1] = system: nitrite levels in the culture media; assay: Nitrite level (Griess Reagent System) in LPS-challenged RAW 264.7 cells; assay type: cell-based, mouse; parameters: key: NS=not significant; a “+” sign=anti-inflammatory or increased cell numbers; a “−” sign=cell toxicity or pro-inflammatory; conditions: LPS 30 or 60 ng/mL, 24 h
Summary of the method: (§1)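 RAW 264.7 cells pretreated 1 h with compound in DMSO vehicle, then challenged with LPS (30 or 60 ng/mL) for 24 h at 37° C. Conditioned-media nitrite by Griess (520 nm, sodium nitrite standard curve, 1.5 μM cutoff) in μM; mouse TNF-α by ELISA as pg/ml or % change from control.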

RAW 264.7 cells = assay: Cell viability (CellTiter 96 AQueous One) of LPS-challenged RAW 264.7 cells; assay type: cell-based, mouse; parameters: key: NS=not significant; a “+” sign=anti-inflammatory or increased cell numbers; a “−” sign=cell toxicity or pro-inflammatory
Summary of the method: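 RAW 264.7 murine macrophages pretreated 1 h with compound or DMSO vehicle, then challenged with LPS (serotype 055:B5) at 30 or 60 ng/mL final for 24 h. After media replacement, viability measured by tetrazolium (MTS) conversion, absorbance at 490 nm, reported as O.D.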

[2] = system: mpo:GFP zebrafish embryos (neutrophil migration to the wound site); assay: mpo:GFP zebrafish fin-clip neutrophil migration (inflammation) assay; assay type: in vivo; parameters: mpo:GFP inflammation n (survived/tested): concentration or dose not given beside the values; conditions: for minimal effective concentration: Danio rerio, Neutrophil, lowest concentration producing an effect, compounds not producing an effect shown at the highest evaluated concentration; for mpo:GFP inflammation n (survived/tested): embryos survived/tested at the concentration given
Description: Zebrafish embryology: The use of zebrafish embryo (Danio rerio) bioassays as a preclinical model in the classification of novel compounds has increased in recent years due to several factors including; low cost, ease of maintenance, speed of embryonic development, transparency of the embryos and genetic conservation between zebrafish and humans (Howe et al., Nature 2013; 496:498; Therapontos et al., PNAS 2009, 106:8573; Mahony et al., PNAS 2013, 110:12703; Beedie et al., Oncotarget 2016, 7(22):33237; Beedie et al., Mol. Cancer Ther. 2015, 14(10):2228). Two established zebrafish reporter lines were used—the fli1:EGFP line, where the fli1 promoter drives expression of enhanced green fluorescent protein within the developing vasculature (Lawson et al., 2002), and the Tg(mpo::EGFP) line (also known as mpo:GFP), which expresses green fluorescent protein via the neutrophil specific myeloperoxidase promoter (Renshaw et al., Blood 2006, 108:3976). The use of these zebrafish transgenic reporter lines allows for the identification of potential anti-angiogenic and anti-inflammatory compounds respectively, and both have been used previously to successfully classify the action of thalidomide analogs (Therapontos et al., 2009; Mahony et al., 2013; Beedie et al., Oncotarget 2016, 7(22):33237; Beedie et al., Mol. Cancer Ther. 2015, 14(10):2228). Zebrafish embryos were treated with analogs as previously described (Mahony et al., 2013). Briefly, fli1:EGFP embryos were collected and embryos were allowed to develop for 24 hours. Embryos were dechorionated manually and exposed to test compounds or vehicle control for a further 24 hours, imaged and analyzed for intersegmental vessel (ISV) growth. At 24 hours post fertilisation (hpf) the ISVs were ideal to study to visualize and analyze the actions of compounds on angiogenesis. At this time point ISVs were rapidly forming beneath the developing head, over the body and had yet to form in the tail (Lawson and Weinstein, Developmental Biology 2002, 248:307; Therapontos and Vargesson, Developmental Dynamics 2010, 239:2761). Additionally, these sprouts would go on to form the bilateral dorsal longitudinal anastomotic vessels. By treating before this fusion and formation occurs, the effect of each compound on the individual vessels as well as overall patterning structural integrity (Isogai et al., Development 2003, 130:5281) could be determined. Tg(mpo::EGFP) were tail fin clipped as previously detailed (Renshaw et al., 2006; Mahony et al., 2013; Beedie et al., Oncotarget 2016, 7(22):33237; Beedie et al., Mol. Cancer Ther. 2015, 14(10):2228) and incubated with test compounds or vehicle control at 72 hours post fertilization. Fish were imaged at 24 hours and the number of migratory neutrophils present at the wound site were counted. Compounds inducing an at least 50% reduction of neutrophils to the wound site were considered to have anti-inflammatory properties in this system. All larvae were assessed for viability and morphological integrity.
To assess the immunomodulatory effects of the thalidomide analogs, the mpo:gfp transgenic zebrafish line (Renshaw et al., Blood 2006, 108:3976-3978) was utilized because it is an accepted model of inflammation, and can be used to test the effect of anti-inflammatory agents. These embryos express GFP-tagged myeloperoxidase, where green fluorescence marks the neutrophil cells involved in the inflammatory response process, for example following injury, from 72 hours post fertilization (Renshaw et al., 2006; Mahony et al., 2013; Beedie et al., Oncotarget 2016, 7(22):33237). At 72 hpf the dorsal third of the tail fin was removed and the embryos were immersed in the desired compound or vehicle (FIGS. 5A-5C). The embryos were examined for the effect on the inflammatory response quantified as an induction and migration of neutrophils to the wound site 24 hours later.

[3] = system: fli1:EGFP zebrafish embryos (intersegmental vessel growth); assay: fli1:EGFP zebrafish embryo angiogenesis assay; assay type: in vivo; parameters: fli1:EGFP angiogenesis n (survived/tested): concentration or dose not given beside the values; conditions: for minimal effective concentration: Danio rerio, lowest concentration producing an effect, compounds not producing an effect shown at the highest evaluated concentration; for fli1:EGFP angiogenesis n (survived/tested): embryos alive after 24 hours of exposure
Summary of the method: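 fli1:EGFP embryos grown 24 hpf, dechorionated and exposed to compound or vehicle over a range of concentrations for up to 24 h, with CPS49 as positive control. Imaged at 48 hpf for intersegmental vessel formation and growth; survival after 24 h exposure recorded, and values reflect the lowest concentration producing an effect.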

TNF-α protein = TNF-α protein level (ELISA) in LPS-challenged RAW 264.7 cells; assay type: cell-based, mouse; parameters: key: NS=not significant; a “+” sign=anti-inflammatory or increased cell numbers; a “−” sign=cell toxicity or pro-inflammatory; conditions: LPS 30 or 60 ng/mL, 24 h
Summary of the method: as §1

Compound | Nitrite ([1]; 1 μM) | Nitrite ([1]; 10 μM) | Nitrite ([1]; 30 μM) | Viability (RAW 264.7 cells; 1 μM) | Viability (RAW 264.7 cells; 10 μM) | Viability (RAW 264.7 cells; 30 μM) | minimal effective concentration [2] [µg/mL] | mpo:GFP inflammation n (survived/tested) [2] | minimal effective concentration [3] [µg/mL] | fli1:EGFP angiogenesis n (survived/tested) [3] | TNF-α (TNF-α protein; 1 μM) | TNF-α (TNF-α protein; 10 μM) | TNF-α (TNF-α protein; 30 μM) | anti-inflammatory activity (inhibition of neutrophil migration) ([2]; in words)
O=C1c2ccccc2CN1C12CC3CC(CC1C3)C2 [Compound 73] | NS | + | + | NS | NS | − | 10 | 7/13 | 10 | 6/12 | NS | NS | + | 
O=C1c2cccc([N+](=O)[O-])c2CN1C12CC3CC(CC(C3)C1)C2 [Compound 76, 2,3-Dihydro-4-nitro-2-(tricyclo[3.3.1.1^3,7]dec-1-yl)-1H-isoindol-1-one] | NS | + | + | NS | NS | NS | 100 | 5/11 | 10 | 28/32 | NS | NS | + | 
O=C1c2ccccc2C(=O)N1c1nc2ccc(C(F)(F)F)cc2s1 [Compound 59, 2-(6-Trifluoromethyl-benzothiazol-2-yl)-1H-isoindole-1,3(2H)-dione] | + | NS | + | NS | NS | NS | 100 | 6/11 | 10 | 21/32 | NS | NS | + | 
O=C1CCC(N2C(=O)c3ccncc3C2=O)C(=O)N1 (stereo not drawn) [Compound 58] | + | + | + | NS | NS | NS | 5 | 7/16 | 10 | 33/33 | NS | NS | NS | most effective analog at inhibiting the inflammatory response
O=C1c2cccc([N+](=O)[O-])c2CN1C1C2CC3CC(C2)CC1C3 (stereo not drawn) [Compound 82] | + | + | + | NS | − | − | 5 | 8/22 | 5 | 18/27 | NS | + | + | 
FC(F)(F)c1ccnc(/N=C2/c3ccccc3CN2c2cc(C(F)(F)F)ccn2)c1 [Compound 67, N-(4-Trifluoromethylpyridin-2-yl)-1-imino(4-trifluoromethylpyridin-2-yl)-isoindoline] | NS | NS | + | NS | NS | NS | 200 | 6/15 | 10 | 13/22 | NS | NS | NS | 
O=C1c2ccccc2CN1CC12CC3CC(CC(C3)C1)C2 [Compound 70] | NS | NS | + | NS | NS | NS | 200 | 10/15 | 10 | 8/10 | NS | + | + | 
CC1(C)S[C@@H]2[C@H](N3Cc4ccccc4C3=O)C(=O)N2[C@H]1C(=O)O [Compound 65, (1)-(2S,5R,6R)-3,3-Dimethyl-7-oxo-6-(1-oxo-1,3-dihydro-1H-isoindol-2-yl)-4-thia-1-azabicyclo[3.2.0]heptane-2-carboxylic acid] | NS | NS | NS | NS | NS | NS | 200 | 10/20 | 200 | 13/13 | − | − | − | 
O=C1c2cccc(O)c2C(=O)N1c1nc2ccc(C(F)(F)F)cc2s1 [Compound 61] | NS | + | + | NS | NS | − | 1 | 9/20 | 100 | 3/15 | NS | NS | + | 
O=C1c2cccc([N+](=O)[O-])c2CN1c1nc2ccc(C(F)(F)F)cc2s1 [Compound 63] | − | − | − | NS | NS | − | 100 | 12/20 | 200 | 6/23 | NS | NS | NS | 
CC1(C)S[C@@H]2[C@H](N3C(=O)c4ccccc4C3=O)C(=O)N2[C@H]1C(=O)O [Compound 64] | NS | NS | NS | NS | NS | NS | 10 | 8/15 | 10 | 8/15 | NS | NS | NS | 
